molecular target: T1, His tagged full-length PTP1B protein (Homo sapiens, UniProt P18031); test: Mobility Shift Assay (MSA) used to determine potency of PTP1B inhibitors; assay type: biochemical; conditions: Table 2
T1 construct: made in house
T1 sequence (P18031 with tags, fused parts or gaps): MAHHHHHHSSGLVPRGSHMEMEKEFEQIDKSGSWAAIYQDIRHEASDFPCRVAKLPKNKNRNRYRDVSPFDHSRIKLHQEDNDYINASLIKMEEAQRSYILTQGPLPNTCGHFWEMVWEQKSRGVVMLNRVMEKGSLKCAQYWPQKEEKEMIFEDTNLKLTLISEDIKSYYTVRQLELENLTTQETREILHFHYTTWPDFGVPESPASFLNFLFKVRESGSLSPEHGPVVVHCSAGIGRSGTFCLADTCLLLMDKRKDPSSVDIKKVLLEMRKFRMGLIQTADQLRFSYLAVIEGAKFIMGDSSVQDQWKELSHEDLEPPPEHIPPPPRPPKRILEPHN
Description: The enzymatic assay used to determine activity is a mobility shift assay using a LabChip EZ Reader by Caliper Life Sciences. The enzymatic reaction was carried out in assay buffer (50 mM HEPES pH 7.5, 1 mM EGTA, 10 mM EDTA, 0.01% Tween® 20, and 2 mM DTT). […] The enzyme (at 0.5 nM) was incubated with compound for 10 minutes at room temperature. […] The % inhibition was then used to calculate the IC50 values.

SMILES	IC50 [nM]
O=C1CN(c2c(O)cc3ccc(OCCN4CCC4)cc3c2F)S(=O)(=O)N1 [Compound 105, 5-{7-[2-(azetidin-1-yl)ethoxy]-1-fluoro-3-hydroxynaphthalen-2-yl}-1λ^6,2,5-thiadiazolidine-1,1,3-trione]	1 to 10
COCCCOc1ccc2cc(O)c(N3CC(=O)NS3(=O)=O)c(F)c2c1 [Compound 247, 5-[1-fluoro-3-hydroxy-7-(3-methoxypropoxy)naphthalen-2-yl]-1λ^6,2,5-thiadiazolidine-1,1,3-trione]	1 to 10
CC(C)CCOc1ccc2cc(O)c(N3CC(=O)NS3(=O)=O)c(F)c2c1 [Compound 204, 5-[1-fluoro-3-hydroxy-7-(3-methylbutoxy)naphthalen-2-yl]-1λ^6,2,5-thiadiazolidine-1,1,3-trione]	< 1
O=C1CN(c2c(O)cc3ccc(OCCCn4cccn4)cc3c2F)S(=O)(=O)N1 [Compound 183, 5-{1-fluoro-3-hydroxy-7-[3-(1H-pyrazol-1-yl)propoxy]naphthalen-2-yl}-1λ^6,2,5-thiadiazolidine-1,1,3-trione]	1 to 10
[2H]C([2H])([2H])Oc1ccc2cc(O)c(N3CC(=O)NS3(=O)=O)c(F)c2c1 [Compound 118, 5-{1-fluoro-3-hydroxy-7-[(2H3)methyloxy]naphthalen-2-yl}-1λ^6,2,5-thiadiazolidine-1,1,3-trione]	1 to 10
O=C1CN(c2c(O)cc3ccc(OCC4CC4)cc3c2F)S(=O)(=O)N1 [Compound 250, 5-[7-(cyclopropylmethoxy)-1-fluoro-3-hydroxynaphthalen-2-yl]-1λ^6,2,5-thiadiazolidine-1,1,3-trione]	1 to 10

Second part, the compound after the results:

IC50 [nM]	SMILES
< 1	CC(C)S(=O)(=O)N1CC=C(c2ccc3cc(O)c(N4CC(=O)NS4(=O)=O)c(F)c3c2)C1 [Compound 296, 5-{1-fluoro-3-hydroxy-7-[1-(propane-2-sulfonyl)-2,5-dihydro-1H-pyrrol-3-yl]naphthalen-2-yl}-1λ^6,2,5-thiadiazolidine-1,1,3-trione]
1 to 10	CS(=O)(=O)N1CCC(Oc2ccc3cc(O)c(N4CC(=O)NS4(=O)=O)c(F)c3c2)CC1 [Compound 284, 5-(1-fluoro-3-hydroxy-7-{[1-(methanesulfonyl)piperidin-4-yl]oxy}naphthalen-2-yl)-1λ^6,2,5-thiadiazolidine-1,1,3-trione]
10 to 100	O=C1CN(c2c(O)cc3ccc(CC4CNC4)cc3c2F)S(=O)(=O)N1 [Compound 267, 5-{7-[(azetidin-3-yl)methyl]-1-fluoro-3-hydroxynaphthalen-2-yl}-1λ^6,2,5-thiadiazolidine-1,1,3-trione]
10 to 100	O=C1CN(c2c(O)cc3ccc(C4CNC4)cc3c2F)S(=O)(=O)N1 [Compound 226, 5-[7-(azetidin-3-yl)-1-fluoro-3-hydroxynaphthalen-2-yl]-1λ^6,2,5-thiadiazolidine-1,1,3-trione]
1 to 10	CCS(=O)(=O)NCCOc1ccc2cc(O)c(N3CC(=O)NS3(=O)=O)c(F)c2c1 [Compound 311, N-(2-{[8-fluoro-6-hydroxy-7-(1,1,4-trioxo-1λ^6,2,5-thiadiazolidin-2-yl)naphthalen-2-yl]oxy}ethyl)ethanesulfonamide]
10 to 100	O=C1CN(c2c(O)cc3ccc(CCO)cc3c2F)S(=O)(=O)N1 [Compound 175, 5-[1-fluoro-3-hydroxy-7-(2-hydroxyethyl)naphthalen-2-yl]-1λ^6,2,5-thiadiazolidine-1,1,3-trione]
< 1	CC(C)CS(=O)(=O)N1CC=C(c2ccc3cc(O)c(N4CC(=O)NS4(=O)=O)c(F)c3c2)C1 [Compound 300, 5-{1-fluoro-3-hydroxy-7-[1-(2-methylpropane-1-sulfonyl)-2,5-dihydro-1H-pyrrol-3-yl]naphthalen-2-yl}-1λ^6,2,5-thiadiazolidine-1,1,3-trione]
1 to 10	O=C1CN(c2c(O)cc3ccc(C4=CCN(S(=O)(=O)CCC(F)(F)F)C4)cc3c2F)S(=O)(=O)N1 [Compound 287, 5-{1-fluoro-3-hydroxy-7-[1-(3,3,3-trifluoropropane-1-sulfonyl)-2,5-dihydro-1H-pyrrol-3-yl]naphthalen-2-yl}-1λ^6,2,5-thiadiazolidine-1,1,3-trione]
